Where a name gives a salt, the structure may show the parent alone.
Columns and labels:
αvβ1 = αvβ1 (Homo sapiens, UniProt P05556+P06756); experiment: Solid Phase Integrin αvβ1 Assay; assay type: binding
In short: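 Compound competes for αvβ1 binding to immobilized TGFb1-LAP (1 µg/mL coat) in Mn2+ (1 mM MnCl2), 2% BSA binding buffer over 90 min at room temperature, integrin added at 0.2 µg/mL. Read-out: streptavidin-HRP/TMB; IC50 from Levenberg-Marquardt four-parameter fit.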

αvβ6 = αvβ6 (Homo sapiens, UniProt P06756+P18564); experiment: Solid Phase Integrin αvβ6 Assay; assay type: binding
In short: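 Inhibition of αvβ6 binding to immobilized recombinant TGFb1-LAP (1 μg/mL coating), 1 h at room temperature with 1 mM MnCl2 in BSA/TBST buffer, integrin diluted to 0.2 μg/mL before addition. Streptavidin-HRP/TMB read-out; four-parameter logistic fitting gave IC50.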

Sequence of αvβ6 (P06756 31-992 limits assumed): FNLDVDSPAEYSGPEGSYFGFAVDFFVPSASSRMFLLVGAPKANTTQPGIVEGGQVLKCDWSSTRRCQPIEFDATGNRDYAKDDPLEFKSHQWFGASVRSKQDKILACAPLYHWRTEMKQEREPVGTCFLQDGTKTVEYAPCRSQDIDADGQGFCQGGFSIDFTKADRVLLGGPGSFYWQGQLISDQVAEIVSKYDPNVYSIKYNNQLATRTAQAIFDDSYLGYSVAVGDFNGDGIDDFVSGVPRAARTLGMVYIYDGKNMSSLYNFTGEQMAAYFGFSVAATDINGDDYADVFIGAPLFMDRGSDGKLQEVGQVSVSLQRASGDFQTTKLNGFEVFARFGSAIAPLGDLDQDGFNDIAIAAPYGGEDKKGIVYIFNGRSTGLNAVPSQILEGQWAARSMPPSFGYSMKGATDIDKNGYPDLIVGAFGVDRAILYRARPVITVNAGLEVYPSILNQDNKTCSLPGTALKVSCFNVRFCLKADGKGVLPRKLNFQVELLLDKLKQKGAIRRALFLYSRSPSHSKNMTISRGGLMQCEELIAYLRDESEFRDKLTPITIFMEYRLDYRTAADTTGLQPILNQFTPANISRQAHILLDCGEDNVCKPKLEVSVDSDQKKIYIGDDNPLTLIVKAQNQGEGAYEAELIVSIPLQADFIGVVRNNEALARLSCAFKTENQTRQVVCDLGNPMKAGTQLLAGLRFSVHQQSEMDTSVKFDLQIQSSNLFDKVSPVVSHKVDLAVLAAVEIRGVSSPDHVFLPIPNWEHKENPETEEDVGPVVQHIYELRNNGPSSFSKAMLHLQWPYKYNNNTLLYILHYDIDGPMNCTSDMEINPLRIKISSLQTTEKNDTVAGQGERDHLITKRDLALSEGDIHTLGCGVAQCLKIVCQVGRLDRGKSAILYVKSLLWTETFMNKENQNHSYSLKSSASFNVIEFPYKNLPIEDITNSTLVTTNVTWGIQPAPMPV
Sequence of αvβ6 (P18564 22-707 limits assumed): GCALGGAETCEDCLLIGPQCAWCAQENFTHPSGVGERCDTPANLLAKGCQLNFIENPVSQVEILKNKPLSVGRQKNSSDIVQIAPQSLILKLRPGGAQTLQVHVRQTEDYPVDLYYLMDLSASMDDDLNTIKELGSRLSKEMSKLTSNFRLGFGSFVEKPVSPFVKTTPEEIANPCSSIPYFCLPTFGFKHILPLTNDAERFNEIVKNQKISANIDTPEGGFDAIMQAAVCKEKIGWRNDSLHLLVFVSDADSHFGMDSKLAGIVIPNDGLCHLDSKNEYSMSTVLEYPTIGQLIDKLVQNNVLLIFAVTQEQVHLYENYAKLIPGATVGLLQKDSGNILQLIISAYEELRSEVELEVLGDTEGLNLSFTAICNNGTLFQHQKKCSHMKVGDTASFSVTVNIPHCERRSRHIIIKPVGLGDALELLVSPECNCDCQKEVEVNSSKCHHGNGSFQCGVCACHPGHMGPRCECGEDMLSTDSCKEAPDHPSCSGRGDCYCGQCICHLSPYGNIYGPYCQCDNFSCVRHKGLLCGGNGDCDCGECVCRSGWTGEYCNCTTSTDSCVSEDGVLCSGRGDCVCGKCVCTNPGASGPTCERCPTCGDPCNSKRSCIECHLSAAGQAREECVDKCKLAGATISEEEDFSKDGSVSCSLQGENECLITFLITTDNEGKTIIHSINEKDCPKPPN
Sequence of αvβ1 (P06756 31-992 limits assumed): as the sequence (P06756 31-992 limits assumed) above
Sequence of αvβ1 (P05556 21-728 limits assumed): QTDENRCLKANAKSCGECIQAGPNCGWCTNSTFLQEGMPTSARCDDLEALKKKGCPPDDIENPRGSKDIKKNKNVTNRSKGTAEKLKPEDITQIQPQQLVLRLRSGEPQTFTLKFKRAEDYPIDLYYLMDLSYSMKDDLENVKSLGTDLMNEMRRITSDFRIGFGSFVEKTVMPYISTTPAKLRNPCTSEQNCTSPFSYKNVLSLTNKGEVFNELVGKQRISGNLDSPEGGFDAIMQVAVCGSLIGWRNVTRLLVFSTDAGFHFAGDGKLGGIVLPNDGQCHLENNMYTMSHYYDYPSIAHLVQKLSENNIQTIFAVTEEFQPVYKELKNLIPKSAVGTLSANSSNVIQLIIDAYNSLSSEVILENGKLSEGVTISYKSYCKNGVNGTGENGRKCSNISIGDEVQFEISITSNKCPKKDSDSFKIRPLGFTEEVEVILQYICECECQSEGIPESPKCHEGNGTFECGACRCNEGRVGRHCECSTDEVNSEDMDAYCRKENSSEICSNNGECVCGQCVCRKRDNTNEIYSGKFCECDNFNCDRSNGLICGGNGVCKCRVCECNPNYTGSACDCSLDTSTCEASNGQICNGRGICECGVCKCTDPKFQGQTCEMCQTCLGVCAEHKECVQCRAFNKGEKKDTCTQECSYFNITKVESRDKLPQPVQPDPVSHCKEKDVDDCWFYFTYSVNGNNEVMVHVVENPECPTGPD

| Compound | IC50 (αvβ1) [nM] | IC50 (αvβ6) [nM] |
| --- | --- | --- |
| CC(C)(C)OC(=O)N[C@@H](CNC(=O)[C@@H]1CCCN(CCCc2ccc3c(n2)NCCC3)C1)C(=O)O [Compound 265, (S)-2-((tert-butoxycarbonyl)amino)-3-((R)-1-(3-(5,6,7,8-tetrahydro-1,8-naphthyridin-2-yl)propyl)piperidine-3-carboxamido)propanoic acid] | < 100 | < 100 |
| CNC(=O)c1cccc(CNC(=O)[C@@H]2CCCC[C@H]2C(=O)N[C@@H](CNC(=O)[C@@H]2CCCN(CCCc3ccc4c(n3)NCCC4)C2)C(=O)O)c1 [Compound 266, (S)-2-((1R,2R)-2-((3-(methylcarbamoyl)benzyl)carbamoyl)cyclohexane-1-carboxamido)-3-((R)-1-(3-(5,6,7,8-tetrahydro-1,8-naphthyridin-2-yl)propyl)piperidine-3-carboxamido)propanoic acid] | < 100 | < 100 |
| CN1CCc2ccc(S(=O)(=O)N3CCC[C@@H](C(=O)N[C@@H](CNC(=O)[C@@H]4CCCN(CCCc5ccc6c(n5)NCCC6)C4)C(=O)O)C3)cc21 [Compound 267, (S)-2-((R)-1-((1-methylindolin-6-yl)sulfonyl)piperidine-3-carboxamido)-3-((R)-1-(3-(5,6,7,8-tetrahydro-1,8-naphthyridin-2-yl)propyl)piperidine-3-carboxamido)propanoic acid] | < 100 | < 100 |
| CO[C@H]1CCN(C(=O)[C@@H]2CCCC[C@H]2C(=O)N[C@@H](CNC(=O)[C@@H]2CCCN(CCCc3ccc4c(n3)NCCC4)C2)C(=O)O)C1 [Compound 268, (S)-2-((1R,2R)-2-((S)-3-methoxypyrrolidine-1-carbonyl)cyclohexane-1-carboxamido)-3-((R)-1-(3-(5,6,7,8-tetrahydro-1,8-naphthyridin-2-yl)propyl)piperidine-3-carboxamido)propanoic acid] | < 100 | < 100 |
| O=C(NC[C@H](Nc1ccnc2ccccc12)C(=O)O)[C@@H]1CCCN(CCCc2ccc3c(n2)NCCC3)C1 [Compound 273, (S)-2-(quinolin-4-ylamino)-3-((R)-1-(3-(5,6,7,8-tetrahydro-1,8-naphthyridin-2-yl)propyl)piperidine-3-carboxamido)propanoic acid] | < 100 | < 100 |
| O=C(NC[C@H](Nc1ncnc2ccsc12)C(=O)O)[C@@H]1CCCN(CCCc2ccc3c(n2)NCCC3)C1 [Compound 276, (2S)-3-[[(3R)-1-[3-(5,6,7,8-tetrahydro-1,8-naphthyridin-2-yl)propyl]piperidine-3-carbonyl]amino]-2-(thieno[3,2-d]pyrimidin-4-ylamino)propanoic acid] | < 100 | < 100 |
| Cc1csc2ncnc(N[C@@H](CNC(=O)[C@@H]3CCCN(CCCc4ccc5c(n4)NCCC5)C3)C(=O)O)c12 [Compound 280, (S)-2-((5-methylthieno[2,3-d]pyrimidin-4-yl)amino)-3-((R)-1-(3-(5,6,7,8-tetrahydro-1,8-naphthyridin-2-yl)propyl)piperidine-3-carboxamido)propanoic acid] | < 100 | < 100 |
| O=C(NC[C@H](Nc1nc2ccccc2s1)C(=O)O)[C@@H]1CCCN(CCCc2ccc3c(n2)NCCC3)C1 [Compound 281, (2S)-2-(1,3-benzothiazol-2-ylamino)-3-[[(3R)-1-[3-(5,6,7,8-tetrahydro-1,8-naphthyridin-2-yl)propyl]piperidine-3-carbonyl]amino]propanoic acid] | < 100 | < 100 |
| O=C(NC[C@H](Nc1cc(C(F)(F)F)ncn1)C(=O)O)[C@@H]1CCCN(CCCc2ccc3c(n2)NCCC3)C1 [Compound 283, (2S)-3-[[(3R)-1-[3-(5,6,7,8-tetrahydro-1,8-naphthyridin-2-yl)propyl]piperidine-3-carbonyl]amino]-2-[[6-(trifluoromethyl)pyrimidin-4-yl]amino]propanoic acid] | < 100 | < 100 |
| O=C(NC1CCCCC1)N[C@@H](CNC(=O)[C@@H]1CCCN(CCCc2ccc3c(n2)NCCC3)C1)C(=O)O [Compound 284, (S)-2-(3-cyclohexylureido)-3-((R)-1-(3-(5,6,7,8-tetrahydro-1,8-naphthyridin-2-yl)propyl)piperidine-3-carboxamido)propanoic acid] | < 100 | < 100 |

Continued, values first:

| IC50 (αvβ1) [nM] | IC50 (αvβ6) [nM] | Compound |
| --- | --- | --- |
| < 100 | < 100 | O=C(NC[C@H](NC(=O)[C@@H]1CCCC[C@H]1C(=O)N1CCCC1)C(=O)O)[C@@H]1CCCN(CCCc2ccc3c(n2)NCCC3)C1 [Compound 264, (S)-2-((1R,2R)-2-(pyrrolidine-1-carbonyl)cyclohexane-1-carboxamido)-3-((R)-1-(3-(5,6,7,8-tetrahydro-1,8-naphthyridin-2-yl)propyl)piperidine-3-carboxamido)propanoic acid] |
| > 1000 | 100 to 1000 | CC1(CN[C@@H](CNC(=O)[C@@H]2CCCN(CCCc3ccc4c(n3)NCCC4)C2)C(=O)O)CCCCC1 [Compound 269, (S)-2-(((1-methylcyclohexyl)methyl)amino)-3-((R)-1-(3-(5,6,7,8-tetrahydro-1,8-naphthyridin-2-yl)propyl)piperidine-3-carboxamido)propanoic acid] |
| < 100 | < 100 | O=C(NC[C@H](NC(=O)C12CCC(CC1)CC2)C(=O)O)[C@@H]1CCCN(CCCc2ccc3c(n2)NCCC3)C1 [Compound 270, (S)-2-(bicyclo[2.2.2]octane-1-carboxamido)-3-((R)-1-(3-(5,6,7,8-tetrahydro-1,8-naphthyridin-2-yl)propyl)piperidine-3-carboxamido)propanoic acid] |
| < 100 | < 100 | O=C(NC[C@H](Nc1ncnc2ccccc12)C(=O)O)[C@@H]1CCCN(CCCc2ccc3c(n2)NCCC3)C1 [Compound 271, (S)-2-(quinazolin-4-ylamino)-3-((R)-1-(3-(5,6,7,8-tetrahydro-1,8-naphthyridin-2-yl)propyl)piperidine-3-carboxamido)propanoic acid] |
| < 100 | < 100 | O=C(NC[C@H](NS(=O)(=O)c1ccccc1)C(=O)O)[C@@H]1CCCN(CCCc2ccc3c(n2)NCCC3)C1 [Compound 272, (S)-2-(phenylsulfonamido)-3-((R)-1-(3-(5,6,7,8-tetrahydro-1,8-naphthyridin-2-yl)propyl)piperidine-3-carboxamido)propanoic acid] |
| < 100 | < 100 | O=C(NC[C@H](NS(=O)(=O)C1CCCCC1)C(=O)O)[C@@H]1CCCN(CCCc2ccc3c(n2)NCCC3)C1 [Compound 274, (S)-2-(cyclohexanesulfonamido)-3-((R)-1-(3-(5,6,7,8-tetrahydro-1,8-naphthyridin-2-yl)propyl)piperidine-3-carboxamido)propanoic acid hydrochloride] |
| 100 to 1000 | < 100 | O=C(NC[C@H](NS(=O)(=O)c1ccc2c(c1)CCC2)C(=O)O)[C@@H]1CCCN(CCCc2ccc3c(n2)NCCC3)C1 [Compound 275, (2S)-2-(indan-5-ylsulfonylamino)-3-[[(3R)-1-[3-(5,6,7,8-tetrahydro-1,8-naphthyridin-2-yl)propyl]piperidine-3-carbonyl]amino]propanoic acid] |
| < 100 | < 100 | Cc1csc2c(N[C@@H](CNC(=O)[C@@H]3CCCN(CCCc4ccc5c(n4)NCCC5)C3)C(=O)O)ncnc12 [Compound 277, (2S)-2-[(7-methylthieno[3,2-d]pyrimidin-4-yl)amino]-3-[[(3R)-1-[3-(5,6,7,8-tetrahydro-1,8-naphthyridin-2-yl)propyl]piperidine-3-carbonyl]amino]propanoic acid] |
| < 100 | < 100 | O=C(NC[C@H](Nc1ncnc2cc(F)c(F)cc12)C(=O)O)[C@@H]1CCCN(CCCc2ccc3c(n2)NCCC3)C1 [Compound 278, (2S)-2-[(6,7-difluoroquinazolin-4-yl)amino]-3-[[(3R)-1-[3-(5,6,7,8-tetrahydro-1,8-naphthyridin-2-yl)propyl]piperidine-3-carbonyl]amino]propanoic acid] |
| < 100 | < 100 | O=C(NC[C@H](Nc1ncnc2sccc12)C(=O)O)[C@@H]1CCCN(CCCc2ccc3c(n2)NCCC3)C1 [Compound 279, (S)-3-((R)-1-(3-(5,6,7,8-tetrahydro-1,8-naphthyridin-2-yl)propyl)piperidine-3-carboxamido)-2-(thieno[2,3-d]pyrimidin-4-ylamino)propanoic acid] |
| < 100 | < 100 | O=C(NC[C@H](Nc1ncnc2cc(C(F)(F)F)ccc12)C(=O)O)[C@@H]1CCCN(CCCc2ccc3c(n2)NCCC3)C1 [Compound 282, (S)-3-((R)-1-(3-(5,6,7,8-tetrahydro-1,8-naphthyridin-2-yl)propyl)piperidine-3-carboxamido)-2-((7-(trifluoromethyl)quinazolin-4-yl)amino)propanoic acid hydrochloride] |
| < 100 | < 100 | O=C(N[C@@H](CNC(=O)[C@@H]1CCCN(CCCc2ccc3c(n2)NCCC3)C1)C(=O)O)C1CC2CCC1CC2 (stereo partly drawn) [Compound 285, (2S)-2-(bicyclo[22.2]octane-2-carboxamido)-3-((R)-1-(3-(5,6,7,8-tetrahydro-1,8-naphthyridin-2-yl)propyl)piperidine-3-carboxamido)propanoic acid] |
| > 1000 | > 1000 | O=C(O)C[C@H](NC(=O)[C@H]1CCCN(C(=O)CCc2ccc3c(n2)NCCC3)C1)c1ccccc1 [Compound 286, (S)-3-phenyl-3-((S)-1-(3-(5,6,7,8-tetrahydro-1,8-naphthyridin-2-yl)propanoyl)piperidine-3-carboxamido)propanoic acid hydrochloride] |
| > 1000 | > 1000 | O=C(O)C[C@H](NC(=O)[C@H]1CCCN(CCCCc2ccc3c(n2)NCCC3)C1)c1ccccc1 [Compound 287, (S)-3-phenyl-3-((S)-1-(4-(5,6,7,8-tetrahydro-1,8-naphthyridin-2-yl)butyl)piperidine-3-carboxamido)propanoic acid] |
